Key:
Y-receptor Y2 = molecular target: T1, Y-receptor Y2 (Homo sapiens, UniProt P49146); test: competitive binding studies at the Y2 receptor; conditions: FIG. 9
T1 sequence (P49146 1-381): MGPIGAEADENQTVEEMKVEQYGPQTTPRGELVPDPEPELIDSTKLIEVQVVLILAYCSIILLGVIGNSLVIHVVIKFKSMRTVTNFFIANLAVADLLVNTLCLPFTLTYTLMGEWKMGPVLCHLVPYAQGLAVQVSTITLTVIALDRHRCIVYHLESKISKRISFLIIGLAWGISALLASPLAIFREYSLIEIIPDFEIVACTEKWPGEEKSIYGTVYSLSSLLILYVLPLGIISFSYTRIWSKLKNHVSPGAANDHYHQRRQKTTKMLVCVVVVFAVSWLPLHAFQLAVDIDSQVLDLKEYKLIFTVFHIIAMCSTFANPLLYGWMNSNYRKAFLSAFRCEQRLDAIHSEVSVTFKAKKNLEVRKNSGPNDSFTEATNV
Experimental: (§1) The performance of the binding assays was performed as previously described.^(5)

Y-receptor Y1 = molecular target: T2, Y-receptor Y1 (Homo sapiens, UniProt P25929); test: competitive binding studies at the Y1 receptor; conditions: FIG. 9
T2 sequence (P25929 1-384): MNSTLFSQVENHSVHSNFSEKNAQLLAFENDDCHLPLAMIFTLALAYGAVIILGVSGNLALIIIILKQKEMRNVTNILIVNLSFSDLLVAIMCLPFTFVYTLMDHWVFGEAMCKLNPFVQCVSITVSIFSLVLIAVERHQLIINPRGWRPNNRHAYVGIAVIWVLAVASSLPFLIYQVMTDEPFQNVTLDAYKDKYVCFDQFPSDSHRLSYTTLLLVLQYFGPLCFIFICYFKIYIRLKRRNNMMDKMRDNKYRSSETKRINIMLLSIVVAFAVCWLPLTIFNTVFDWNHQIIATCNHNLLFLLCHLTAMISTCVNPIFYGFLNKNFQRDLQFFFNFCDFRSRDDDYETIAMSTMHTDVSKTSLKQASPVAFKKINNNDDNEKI
Experimental: as §1

Y-receptor Y5 = molecular target: T3, Y-receptor Y5 (Homo sapiens, UniProt Q15761); test: competitive binding studies at the Y5 receptor; conditions: FIG. 9
T3 sequence (Q15761 1-445): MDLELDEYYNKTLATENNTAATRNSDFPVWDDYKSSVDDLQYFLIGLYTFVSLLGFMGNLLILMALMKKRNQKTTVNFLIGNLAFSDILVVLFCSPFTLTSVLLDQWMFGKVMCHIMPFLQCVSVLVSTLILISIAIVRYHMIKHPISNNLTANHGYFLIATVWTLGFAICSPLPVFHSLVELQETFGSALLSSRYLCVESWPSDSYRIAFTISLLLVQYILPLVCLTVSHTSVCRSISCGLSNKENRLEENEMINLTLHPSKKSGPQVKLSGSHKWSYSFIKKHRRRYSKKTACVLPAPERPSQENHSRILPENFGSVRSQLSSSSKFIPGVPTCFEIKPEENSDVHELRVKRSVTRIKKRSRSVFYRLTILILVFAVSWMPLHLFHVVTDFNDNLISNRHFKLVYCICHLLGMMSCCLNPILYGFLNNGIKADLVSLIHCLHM
Experimental: as §1

PTH1-receptor = PTH1-receptor (Homo sapiens, UniProt Q03431); test: competitive binding study at PTH1-receptor; conditions: radio ligand concentration of 1 nM; FIG. 15
PTH1-receptor, sequence (Q03431 27-593): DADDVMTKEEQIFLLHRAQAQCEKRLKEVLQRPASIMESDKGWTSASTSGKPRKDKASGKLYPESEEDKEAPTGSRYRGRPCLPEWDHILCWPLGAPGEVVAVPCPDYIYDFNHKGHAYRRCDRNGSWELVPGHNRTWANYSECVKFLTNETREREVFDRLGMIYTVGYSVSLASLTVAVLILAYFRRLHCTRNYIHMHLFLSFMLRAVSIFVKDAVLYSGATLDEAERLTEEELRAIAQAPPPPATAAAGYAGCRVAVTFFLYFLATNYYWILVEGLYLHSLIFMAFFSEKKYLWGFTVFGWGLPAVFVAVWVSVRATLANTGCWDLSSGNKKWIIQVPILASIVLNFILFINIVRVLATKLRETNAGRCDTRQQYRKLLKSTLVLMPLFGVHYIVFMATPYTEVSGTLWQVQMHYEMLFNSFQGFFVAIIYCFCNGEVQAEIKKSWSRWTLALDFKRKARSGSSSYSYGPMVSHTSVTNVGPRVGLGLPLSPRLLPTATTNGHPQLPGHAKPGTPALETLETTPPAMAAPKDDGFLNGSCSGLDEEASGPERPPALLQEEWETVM

Compound | behavior in competitive binding in comparison to commercially available ^3H-NPY (Y-receptor Y2) | behavior in competitive binding in comparison to commercially available ^3H-NPY (Y-receptor Y1) | behavior in competitive binding in comparison to commercially available ^3H-NPY (Y-receptor Y5) | behavior in competitive binding relative to non-marked PTH (1-34)-amide (PTH1-receptor)
^3H-proprionyl-Lys^4-NPY [^3H-NPY] | identical behavior | identical behavior | identical behavior | 
[3H]CC([3H])C(=O)NCCCC[C@H](NC(=O)CNC(=O)[C@H](CC(C)C)NC(=O)[C@H](CC(N)=O)NC(=O)[C@H](Cc1c[nH]cn1)NC(=O)[C@H](CCSC)NC(=O)[C@H](CC(C)C)NC(=O)[C@H](CCC(N)=O)NC(=O)[C@@H](NC(=O)[C@H](CCC(=O)O)NC(=O)[C@H](CO)NC(=O)[C@@H](NC(=O)[C@@H](N)CO)C(C)C)[C@@H](C)CC)C(=O)N[C@@H](Cc1c[nH]cn1)C(=O)N[C@@H](CC(C)C)C(=O)N[C@@H](CC(N)=O)C(=O)N[C@@H](CO)C(=O)N[C@@H](CCSC)C(=O)N[C@@H](CCC(=O)O)C(=O)N[C@@H](CCCNC(=N)N)C(=O)N[C@H](C(=O)N[C@@H](CCC(=O)O)C(=O)N[C@@H](Cc1c[nH]c2ccccc12)C(=O)N[C@@H](CC(C)C)C(=O)N[C@@H](CCCNC(=N)N)C(=O)N[C@@H](CCCCN)C(=O)N[C@@H](CCCCN)C(=O)N[C@@H](CC(C)C)C(=O)N[C@@H](CCC(N)=O)C(=O)N[C@@H](CC(=O)O)C(=O)N[C@H](C(=O)N[C@@H](Cc1c[nH]cn1)C(=O)N[C@@H](CC(N)=O)C(=O)N[C@@H](Cc1ccccc1)C(N)=O)C(C)C)C(C)C (stereo partly shown) [PTH (1-34)-amide marked at position 13, ^3H-proprionyl-Lys^13-PTH(1-34)-amide] |  |  |  | nearly identical behavior
